This is an account of results in patent US20240336655A1, “AMPHIPHILIC PEPTIDES FOR NUCLEIC ACID AND PROTEIN DELIVERY” (AJK BIOPHARMACEUTICAL, LLC, priority 2021, published 2024).

Molecules are shown by their SMILES. Peptide text beside a SMILES is read from it.

One data set relates to MDA-MB-231 cells. The data set can be described thus: Cytotoxicity of peptides and peptide/siRNA complexes in MDA-MB-231 cells (MTT / CCK). The format is cell-based, human. To be noted: as compared to commercial agent lipofectamine. On the procedure:
(§1) The binding affinity for [CR4W4C] […] The toxicity of the peptides was evaluated in triple-negative breast cancer (TNBC) cells MDA-MB-231 (as a model cancer cell line) with peptide alone and siRNA complexes, and CCK assay to quantify cell viability after 48 hours.
The human breast cancer cell line MDA-MB-231 was purchased from American Type Culture Collection (ATCC; Manassas, VA). MDA-MB-231 was cultured in the DMEM medium. The media was supplemented with 10% (v/v) fetal bovine serum, 100 U/mL penicillin, and 100 μg/ml streptomycin. Cells were maintained in the normal condition of 37° C. and 5% CO2 under a humidified atmosphere and were sub-cultured when 80-100% confluent.
Toxicity of the Peptide/siRNA Complexes: The effect of peptides on the viability of human cell lines was evaluated by exposing the MDA-MB-231 cell lines (FIGS. 9-12) to different concentrations of peptide solution and exposing the cells to peptide/siRNA complexes prepared with different peptides at a various peptide:siRNA ratios according to the previously reported procedure by us (Mozaffari S, Bousoik E, Amirrad F, Lamboy R, Coyle M, Hall R, Alasmari A, Mahdipoor P, Parang K, Montazeri Aliabadi H. Amphiphilic Peptides for Efficient siRNA Delivery. Polymers (Basel). 2019; 11(4). doi: 10.3390/polym11040703. PubMed PMID: 30999603; PMCID: PMC6523661). […]

The next data set deals with siRNA. The data set can be described thus: Serum stability / protection of siRNA against enzymatic degradation in fetal bovine serum. The format is in vitro ADME. To be noted: 24 hours of exposure to serum, N/P ratio of 40, compared to siRNA exposed to saline.
Description: Serum Stability. In order to determine the capability of the complexes to protect the siRNA against enzymatic degradation, Inventors exposed different study groups to a diluted fetal bovine serum (FBS) solution, with “naked” siRNA as a positive control, and siRNA exposed to saline as a negative control according to the previously reported procedure (Mozaffari S, Bousoik E, Amirrad F, Lamboy R, Coyle M, Hall R, Alasmari A, Mahdipoor P, Parang K, Montazeri Aliabadi H. Amphiphilic Peptides for Efficient siRNA Delivery. Polymers (Basel). 2019; 11(4) doi: 10.3390/polym11040703. PubMed PMID: 30999603; PMCID: PMC6523661).
as §1
Protection of siRNA against Enzymatic Degradation. […] After the incubation, complexes were dissociated using a 2:3 mixture of heparin (5% solution in normal saline) and EDTA (0.5 mM), and the samples were analyzed using a 1% agarose gel (with 1 μg/mL ethidium bromide) at 70 V for 20 minutes. UV illumination (Gel-Doc system, Bio-Rad; Hercules, CA) was used to visualize the gel, and the intensity of the bands (representing remaining intact siRNA) was quantified by Image J software (FIG. 8).

As for `N=C(N)NCCC[C@@H]1NC(=O)[C@H](CCCNC(=N)N)NC(=O)[C@H](CCCNC(=N)N)NC(=O)[C@H](CCCNC(=N)N)NC(=O)[C@H](CCCNC(=N)N)NC(=O)[C@@H](NC(=O)[C@H](Cc2c[nH]c3ccccc23)NC(=O)[C@H](Cc2c[nH]c3ccccc23)NC(=O)[C@H](Cc2c[nH]c3ccccc23)NC(=O)[C@@H](N)Cc2c[nH]c3ccccc23)CSSC[C@@H](C(=O)N[C@@H](Cc2c[nH]c3ccccc23)C(=O)N[C@@H](Cc2c[nH]c3ccccc23)C(=O)N[C@@H](Cc2c[nH]c3ccccc23)C(=O)N[C@@H](Cc2c[nH]c3ccccc23)C(=O)O)NC1=O` [W4[CR5C]W4] (HELM PEPTIDE1{W.W.W.W.C.R.R.R.R.R.C.W.W.W.W}$PEPTIDE1,PEPTIDE1,5:R3-11:R3$$$V2.0; N-terminus and C-terminus assumed), the toxicity entry in the data set with MDA-MB-231 cells is reported as “without toxicity”. For the same compound, the “protection of siRNA in the presence of serum” value in the data set on siRNA is listed as “protect siRNA completely”.
The like results for `N=C(N)NCCC[C@@H]1NC(=O)[C@H](CCCNC(=N)N)NC(=O)[C@H](CCCNC(=N)N)NC(=O)[C@H](CCCNC(=N)N)NC(=O)[C@@H](N)CSSC[C@@H](C(=O)O)NC(=O)[C@H](Cc2c[nH]c3ccccc23)NC(=O)[C@H](Cc2c[nH]c3ccccc23)NC(=O)[C@H](Cc2c[nH]c3ccccc23)NC(=O)[C@H](Cc2c[nH]c3ccccc23)NC1=O` [[CR4W4C]] (HELM PEPTIDE1{C.R.R.R.R.W.W.W.W.C}$PEPTIDE1,PEPTIDE1,1:R3-10:R3$$$V2.0; N-terminus and C-terminus assumed) were, in that order, “without toxicity” and “protect siRNA completely”.
